Values of other authors in patent US20190105332A1, “METHODS OF TREATING PROSTATE CANCER” (Janssen Oncology, Inc., priority 2017, published 2019).
Where two headings read alike, the source gives them in different places.

Tests used:
CYP2C8 = target: T1, CYP2C8 (Homo sapiens, UniProt P10632); design: from tissue; host or cells: in vivo, healthy human subjects (endogenous enzyme); details: healthy subjects; single dose of 1,000 mg abiraterone acetate
T1 sequence (P10632 1-490): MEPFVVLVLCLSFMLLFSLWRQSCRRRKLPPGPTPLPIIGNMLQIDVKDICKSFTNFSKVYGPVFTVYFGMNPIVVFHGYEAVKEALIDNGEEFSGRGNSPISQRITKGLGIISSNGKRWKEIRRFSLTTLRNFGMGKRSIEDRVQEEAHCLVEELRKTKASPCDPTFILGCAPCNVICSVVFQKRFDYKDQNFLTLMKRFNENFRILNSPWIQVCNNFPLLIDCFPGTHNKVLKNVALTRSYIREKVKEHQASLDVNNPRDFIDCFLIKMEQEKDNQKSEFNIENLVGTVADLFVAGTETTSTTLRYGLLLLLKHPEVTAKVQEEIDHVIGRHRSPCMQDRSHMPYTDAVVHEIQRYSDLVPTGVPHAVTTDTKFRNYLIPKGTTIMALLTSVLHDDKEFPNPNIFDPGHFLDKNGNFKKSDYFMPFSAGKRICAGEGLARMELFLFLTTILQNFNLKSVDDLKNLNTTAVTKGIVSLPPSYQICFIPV

P-glycoprotein (P-gp) = P-glycoprotein (P-gp) (Homo sapiens, UniProt P08183); details: in vitro
[1] = not given; remark: listed apart in the source
[2] = not given; remark: listed apart in the source
CYP2D6 = target: T2, CYP2D6 (Homo sapiens, UniProt P10635)
T2 construct: from tissue; host or cells: in vivo, trial participants (endogenous hepatic enzyme)

[3] = not given; remark: listed apart in the source
[4] = not given; remark: listed apart in the source
[5] = not given; remark: listed apart in the source
[6] = not given; remark: listed apart in the source
[7] = rat micronucleus assay
CYP1A2 = target: T3, CYP1A2 (Homo sapiens, UniProt P05177); details: abiraterone acetate 1,000 mg daily plus prednisone 5 mg twice daily; single 100 mg theophylline
T3 sequence (P05177 1-516): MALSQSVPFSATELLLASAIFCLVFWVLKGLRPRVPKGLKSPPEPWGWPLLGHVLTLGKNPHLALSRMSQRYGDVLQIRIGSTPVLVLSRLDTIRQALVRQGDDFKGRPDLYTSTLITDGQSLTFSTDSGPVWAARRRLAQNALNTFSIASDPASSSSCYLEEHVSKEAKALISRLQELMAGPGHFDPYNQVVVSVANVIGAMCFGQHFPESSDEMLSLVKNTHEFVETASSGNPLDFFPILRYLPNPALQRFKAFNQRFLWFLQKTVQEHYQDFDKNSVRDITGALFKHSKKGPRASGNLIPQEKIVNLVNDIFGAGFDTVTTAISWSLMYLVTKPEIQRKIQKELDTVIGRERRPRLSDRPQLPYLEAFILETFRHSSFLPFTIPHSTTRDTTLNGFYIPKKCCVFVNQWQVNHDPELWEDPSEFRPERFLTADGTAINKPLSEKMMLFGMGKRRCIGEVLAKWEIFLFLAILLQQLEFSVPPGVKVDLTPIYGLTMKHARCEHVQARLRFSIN

[8] = tested on: primary human lymphocytes
[9] = 6-month study
[10] = not given; remark: listed apart in the source
[11] = abiraterone acetate 1,000 mg daily and prednisone 5 mg twice daily
[12] = oral, 2 weeks until day 7 of pregnancy

T2 sequence (P10635 whole entry): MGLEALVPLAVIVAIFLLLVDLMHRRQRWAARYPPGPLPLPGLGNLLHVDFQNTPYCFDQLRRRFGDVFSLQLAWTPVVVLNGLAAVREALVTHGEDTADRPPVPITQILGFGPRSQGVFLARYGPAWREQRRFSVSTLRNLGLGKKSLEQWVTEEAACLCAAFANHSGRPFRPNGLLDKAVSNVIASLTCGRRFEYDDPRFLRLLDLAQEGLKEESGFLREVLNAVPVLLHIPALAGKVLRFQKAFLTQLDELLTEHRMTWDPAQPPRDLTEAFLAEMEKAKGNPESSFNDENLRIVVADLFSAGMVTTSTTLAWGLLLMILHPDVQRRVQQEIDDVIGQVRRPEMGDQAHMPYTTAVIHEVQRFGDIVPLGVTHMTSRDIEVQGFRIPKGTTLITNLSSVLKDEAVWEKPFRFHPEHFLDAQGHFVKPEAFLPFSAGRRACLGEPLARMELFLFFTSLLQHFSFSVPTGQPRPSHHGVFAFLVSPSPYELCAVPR
P-glycoprotein (P-gp), sequence (P08183 whole entry): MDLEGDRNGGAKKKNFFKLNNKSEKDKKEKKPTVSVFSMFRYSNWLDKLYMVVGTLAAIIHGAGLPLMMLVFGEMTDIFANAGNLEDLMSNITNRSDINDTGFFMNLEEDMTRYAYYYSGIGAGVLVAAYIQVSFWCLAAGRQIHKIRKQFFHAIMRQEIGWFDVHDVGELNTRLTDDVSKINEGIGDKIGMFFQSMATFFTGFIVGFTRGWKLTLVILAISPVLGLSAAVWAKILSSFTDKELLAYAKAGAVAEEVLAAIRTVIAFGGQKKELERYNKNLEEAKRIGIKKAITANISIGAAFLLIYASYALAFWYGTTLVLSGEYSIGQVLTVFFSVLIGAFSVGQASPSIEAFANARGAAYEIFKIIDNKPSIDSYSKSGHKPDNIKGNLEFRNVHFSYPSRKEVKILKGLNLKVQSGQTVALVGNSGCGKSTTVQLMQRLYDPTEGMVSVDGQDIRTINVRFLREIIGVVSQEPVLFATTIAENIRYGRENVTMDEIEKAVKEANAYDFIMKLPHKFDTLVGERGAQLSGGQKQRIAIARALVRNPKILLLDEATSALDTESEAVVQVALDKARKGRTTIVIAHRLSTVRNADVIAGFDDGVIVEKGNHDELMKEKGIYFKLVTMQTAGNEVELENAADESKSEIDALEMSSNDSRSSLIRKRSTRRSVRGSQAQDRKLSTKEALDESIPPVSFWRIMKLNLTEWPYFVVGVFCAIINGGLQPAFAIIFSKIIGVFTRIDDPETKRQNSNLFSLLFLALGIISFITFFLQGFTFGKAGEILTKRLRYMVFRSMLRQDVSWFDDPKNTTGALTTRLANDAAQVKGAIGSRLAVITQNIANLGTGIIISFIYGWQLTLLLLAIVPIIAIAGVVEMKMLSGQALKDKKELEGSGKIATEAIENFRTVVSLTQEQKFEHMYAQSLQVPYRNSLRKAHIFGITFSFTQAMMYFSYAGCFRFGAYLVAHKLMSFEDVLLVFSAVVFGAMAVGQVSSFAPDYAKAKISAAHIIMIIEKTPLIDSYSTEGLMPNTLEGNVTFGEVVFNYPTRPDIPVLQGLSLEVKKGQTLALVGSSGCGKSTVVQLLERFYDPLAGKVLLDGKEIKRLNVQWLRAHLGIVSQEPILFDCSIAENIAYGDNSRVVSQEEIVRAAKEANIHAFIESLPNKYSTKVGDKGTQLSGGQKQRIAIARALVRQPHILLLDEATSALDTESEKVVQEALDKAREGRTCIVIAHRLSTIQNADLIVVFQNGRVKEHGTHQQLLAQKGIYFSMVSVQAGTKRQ

For CC(=O)O[C@H]1CC[C@@]2(C)C(=CC[C@@H]3[C@@H]2CC[C@]2(C)C(c4cccnc4)=CC[C@@H]32)C1 [abiraterone acetate, (3β)-17-(3-pyridinyl) androsta-5,16-dien-3-yl acetate], the “increase in AUC of pioglitazone (CYP2C8 substrate)” value (CYP2C8) is listed as 46%, the “exposure at which a reduction in circulating testosterone levels occurred” value (13- and 39-week studies) is listed as “approximately one half the human clinical exposure” and the cataracts (39-week, daily oral, 2 times greater than the clinical exposure based on AUC) is listed as “no cataracts were observed”. The “doses with atrophy, aspermia/hypospermia, and hyperplasia in the reproductive system” value (39-weeks) was no less than 250 mg/kg/day, the “inhibition of P-gp” value (P-glycoprotein (P-gp)) was “inhibitor” and the “substrate of P-glycoprotein (P-gp)” value (P-glycoprotein (P-gp); clinically relevant concentrations) was “not substrates”. The “carcinogenicity in female rats” value ([1]; exposure levels up to 0.8 times the human clinical exposure based on AUC) was “not carcinogenic”, the “carcinogenicity in male rats” value ([1]; oral 5, 15, and 50 mg/kg/day) was “increased the combined incidence of interstitial, cell adenomas and carcinomas in the testes at all dose levels tested” and the “30 mg/kg/day in rats relative to the recommended dose of 1,000 mg/day” value ([2]; based on body surface area) was “approximately 0.3 times”. For the same molecule, the “doses with reduced reproductive organ weights, sperm counts, sperm motility, altered sperm morphology and decreased fertility” value ([2]; dosed orally for 4 weeks) was no less than 30 mg/kg/day, the “time after last administration at which effects on male rats were reversible” value ([2]; rat, in vivo) was 16 weeks and the “increase in AUC of dextromethorphan (CYP2D6 substrate)” value (CYP2D6; [11]) was 2.9 fold. The “increase in Cmax of dextromethorphan (CYP2D6 substrate)” value (CYP2D6; [11]) was 2.8 fold, the “increase in AUC for dextrorphan” value (CYP2D6; abiraterone acetate 1,000 mg daily plus prednisone 5 mg twice daily) was “approximately 1.3 fold” and the “systemic exposure (AUC) relative to the AUC in patients” value ([3]; 100 mg/kg/day) was roughly 0.3 times. For the same molecule, the “dose with decreased fetal body weight” value ([3]; oral, gestational days 6-17) was 100 mg/kg/day, the “doses that caused maternal toxicity” value ([3]; oral, gestational days 6-17) was no less than 10 mg/kg/day and the “doses with decreased fetal ano-genital distance” value ([3]; oral, gestational days 6-17) was no less than 30 mg/kg/day. The “doses with embryo-fetal lethality, fetal developmental delay and urogenital effects” value ([3]; rat, in vivo, po) was no less than 10 mg/kg/day, the “octanol-water partition coefficient (Log P)” value [4] was 5.12 and the “pKa of the aromatic nitrogen” value [4] was 5.19. The solubility in water [4] was “practically insoluble”, the “dose with pre-implantation loss” value [5, 12] was 300 mg/kg/day and the “doses with increased incidence of irregular or extended estrous cycles” value [5, 12] was no less than 30 mg/kg/day. The “mating, fertility, and litter parameters” value ([5]; rat, in vivo) was “no differences”, the “time after last administration at which effects on female rats were reversible” value ([5]; rat, in vivo) was 4 weeks and the “exposure at which a reduction in circulating testosterone levels occurred” value ([6]; 13- and 26-week studies) was “approximately one half the human clinical exposure”. The “doses with dose-dependent increase in cataracts” value ([6]; daily oral, 26 weeks, similar to the human clinical exposure based on AUC) was no less than 50 mg/kg/day, the “doses with atrophy, aspermia/hypospermia, and hyperplasia in the reproductive system” value ([6]; male rats, 13- and 26-weeks) was no less than 50 mg/kg/day and the clastogenicity in vivo [7] was “not mutagenic in an in vitro microbial mutagenesis (Ames) assay or clastogenic”. For the same molecule, the “systemic exposure of theophylline (CYP1A2 substrate)” value (CYP1A2) was “no increase”, the clastogenicity in vitro [8] was “not mutagenic in an in vitro microbial mutagenesis (Ames) assay or clastogenic” and the carcinogenicity [9] was “not carcinogenic”. For the same molecule, the conversion to abiraterone ([10]; likely through esterase activity) was “not CYP mediated”, the “compound present in feces, share of the administered dose” value ([10]; oral 14C-abiraterone acetate) was “approximately 55%” and the “radioactive dose recovered in feces” value ([10]; oral administration) was “approximately 88%”. The “radioactive dose recovered in urine” value ([10]; oral administration) was “approximately 5%”.
